According to US8546428B2 (priority 2006, dated 2013):

Tested on: Mycobacteria including drug resistant strains, in particular Mycobacterium tuberculosis, M. bovis, M. avium, M. leprae and M. marinum
Type: cell-based

COc1nc2ccc(Br)cc2cc1[C@@H](c1ccccc1)[C@@](O)(CCN(C)C)c1cccc2ccccc12.O=C(O)/C=C/C(=O)O [Present fumarate salt, (alpha S, beta R)-6-bromo-alpha-[2-(dimethylamino)ethyl]-2-methoxy-alpha-1-naphthalenyl-beta-phenyl-3-quinolineethanol (2E)-2-butenedioate (1:1)]
activity against Mycobacteria: shows activity
